Results taken from patent publication US6380195B1, “Method of treating heart failure with endothelin antagonists” (Banyu Pharmaceutical Co., Ltd., priority 1996, dated 2002).
“Also recorded” adds a separate entry of the source. Marks after values point to notes of the source that are not given here.

Columns and labels:
[1] = system: conscious pigs with heart failure; experiment: Hemodynamic study in conscious pigs with heart failure (serial myocardial infarctions plus intermittent tachycardic pacing); type: in vivo, pig; details: for LV End-Diastolic Diameter, change from baseline / LV End-Systolic Diameter, change from baseline / LV Fractional Shortening, change from baseline / Vcf, change from baseline: n = 3; for Cardiac Index, change from baseline / Heart Rate, change from baseline / LV dP/dt, change from baseline / Left Atrial Pressure, change from baseline / Mean Arterial Pressure, change from baseline / Total Peripheral Resistance, change from baseline: n = 4
Method: Five farm pigs of either of sex and weighing 34.5±2.5 kg were sedated with ketamine hydrochloride (25 mg/kg, i.m.) and xylazine (6 mg/kg, i.m.). After tracheal intubation, general anesthesia was maintained with isoflurane (1.5-2.0 vol % in oxygen). Using sterile surgical technique, a left thoracotomy was performed at the fifth intercostal space. Catheters made of Tygon tubing (Norton Performance Plastics Co., Akron, Ohio) were implanted in the descending aorta, left and right atria for measurement of pressures. A solid-state miniature pressure gauge (Konigsberg Instruments Inc., Pasadena, Calif.) was implanted in the left ventricular (LV) chamber to obtain LV pressure and the rate of change of LV pressure (LV dP/dt). A flow probe (Transonic System Inc., Ithaca, N.Y.) was placed around the main pulmonary artery for measurement of blood flow. One pair of piezoelectric ultrasonic dimension crystals were implanted on opposing anterior and posterior endocardial regions of the LV to measure the short-axis internal diameter. Proper alignment of the endocardial crystals was achieved during surgical implantation by positioning the crystals so as to obtain a signal with the greatest amplitude and shortest transit time. A pacing lead (model 5069, Medtronic Inc., Minneapolis, Minn.) was attached to the right ventricular free wall, and stainless steel pacing leads were attached to the left atrial appendage. The left circumflex coronary artery was isolated and two hydraulic occluders, made of Tygon tubing, were implanted proximally and distally to the first obtuse marginal branch. The wires and catheters were externalized between the scapulae, the incision was closed in layers, and air was evacuated from the chest cavity.
Hemodynamic recordings were made using a data tape recorder (RD-130TE, TEAC, Montebello, Calif.) and a multiple-channel oscillograph (MT95K2, Astro-Med, West Warwick, R.I.). Aortic and left atrial pressures were measured using strain gauge manometers (Statham Instruments, Oxnard, Calif.), which were calibrated in vitro using a mercury manometer, connected to the fluid-filled catheters. The solid-state LV pressure gauge was cross-calibrated with aortic and left atrial pressure measurements. LV dP/dt was obtained by electronically differentiating the LV pressure signal. Blood flow was measured using a volume flow meter (T208, Transonic System Inc., Ithaca, N.Y.). Mean arterial pressure, left atrial pressures, and pulmonary blood flow (cardiac output) were measured using an amplifier filter. Stroke volume was calculated as the quotient of cardiac output and heart rate. Cardiac output was normalized by body weight to yield cardiac index. LV dimension was measured with an ultrasonic transit-time dimension gauge (Model 203, Triton Technology Inc., San Diego, Calif.). Total peripheral resistance was calculated as the quotient of mean arterial pressure and cardiac output. LV short-axis end-diastolic dimension (EDD) was measured at the beginning of the upstroke of the LV dP/dt signal. LV end-systolic dimension (ESD) was measured at the time of maximum negative dP/dt. The percent shortening of LV internal diameter was calculated as (EDD-ESD)/EDD*100. LV mean velocity of circumferential fiber shortening (Vcf) was calculated from the dimension measurements using the following formula:(EDD-ESD)/EDD/Ejection time (sec^−1). Ejection time was measured as the interval between maximum and minimum LV dP/dt. A cardiotachometer triggered by the LV pressure pulse provided instantaneous and continuous records of heart rate.
Experiments were initiated 10-14 days after surgery, when the pigs were fully recovered from surgery. During the post-operative period, the pigs were introduced to a sling for training. Heart failure was produced by progressive myocardial ischemia induced by two coronary artery occlusions followed by intermittent ventricular pacing.

ET receptor = experiment: Endothelin-1 (ET-1) challenge before and after Compound 1 in conscious pigs with heart failure; type: in vivo, pig
Method: Hemodynamic experiments were performed after 2 cycles of tachycardic pacing in the presence of myocardial ischemia injury, after the animal had achieved a stable state of heart failure. During the experiments, the pigs were conscious and quietly restrained in a sling. The test compound is dissolved in saturated NaHCO3 (10% by Vol) and 0.9% saline (90% by Vol) at a concentration of 2 mg/ml, was studied in four conscious pigs with heart failure. A dose of 0.5 mg/kg was injected intravenously over a period of 2 minutes, and hemodynamics were continuously recorded before and 90 minutes following injection of the test compound in all 4 pigs. In two of these pigs, recording continued until 3 hours following injection of the test compound. The vehicle was tested on separate days. The effects of 0.1 to 0.5 μg/kg cumulative bolus doses in 0.1 μg/kg steps of endothelin-1 (Peptide Institute, Inc., Osaka, Japan) were also examined on separate days before and 90 minutes after injection of the test compound in three pigs during development of heart failure to characterize the extent of endothelin block by the test compound. ET-1 was dissolved in 0.1 N NaHCO3 ([…]) and 0.9% saline (95% by Vol) at a concentration of 20 μg/ml.
Hemodynamic experiments were performed after 2 cycles of tachycardic pacing in the presence of myocardial ischemia injury, after the animal had achieved a stable state of heart failure. During the experiments, the pigs were conscious and quietly restrained in a sling. Compound 1, dissolved in saturated NaHCO3 (10% by Vol) and 0.9% saline (90% by Vol) at a concentration of 2 mg/ml, was studied in four conscious pigs with heart failure. A dose of 0.5 mg/kg was injected intravenously over a period of 2 minutes, and hemodynamics were continuously recorded before and 90 minutes following injection of Compound 1 in all 4 pigs. In two of these pigs, recording continued until 3 hour following injection of Compound 1. The vehicle was tested on separate days. The effects of 0.1 to 0.5 μg/kg cumulative bolus doses in 0.1 μg/kg steps of endothelin-1 (Peptide Institute, Inc., Osaka, Japan) were also examined on separate days before and 90 minutes after injection of Compound 1 in three pigs during development of heart failure to characterize the extent of ET block by Compound 1. ET-1was dissolved in 0.1 N NaHCO3 ([…]) and 0.9% saline (95% by Vol) at a concentration of 20 μg/ml. For comparative purpose, the effects of intravenous injection of Compound 2 (enalaprilat), at doses of 1 mg/kg and 4 mg/kg, were studied on different days in three of the pigs that were used to study […] and in one additional pig. Compound 2 was dissolved in 0.9% saline.

[2] = 0.5 mg/kg i.v., 60 minutes after administration
[3] = Compound 1 0.5 mg/kg i.v., 15 min
[4] = Compound 1 0.5 mg/kg i.v., 60 min
[5] = ET-1 cumulative i.v. bolus 0.1 to 0.5 μg/kg, without Compound 1

With `CCCCc1ccc2c(n1)[C@@H](c1ccc(OC)cc1CC(C)C(=O)O)[C@H](C(=O)O)[C@H]2c1ccc2c(c1)OCO2` (relative stereo) [Compound 1, (+)-(5S*, 6R*, 7R*)-2-butyl-6-carboxy-7-[2-(2-carboxypropyl)-4-methoxyphenyl]-5-(3,4-methylenedioxyphenyl)cyclopenteno[1,2-b]pyridine] the “Vcf, increase” value ([1]; 0.5 mg/kg i.v.) was 12±2%, the “effect on LV dP/dt (in words)” value ([1]; 0.5 mg/kg i.v.) was “not affected” and the “effect on LV end-diastolic diameter (in words)” value ([1]; 0.5 mg/kg i.v.) was “not affected”. For the same compound, the “effect on LV fraction shortening (in words)” value ([1]; 0.5 mg/kg i.v.) was “not affected”, the “effect on LV systolic diameter (in words)” value ([1]; 0.5 mg/kg i.v.) was “not affected” and the “effect on elevated vascular resistance of heart failure (in words)” value ([1]; 0.5 mg/kg i.v.) was “complete restoration of the elevated vascular resistance of heart failure back to pre-heart failure control values; also recorded: reduced the elevated vascular resistance”. The “effect on myocardial contractility (in words)” value ([1]; 0.5 mg/kg i.v.) was “did not affect myocardial contractility”, the “heart rate, increase (in words)” value ([1]; 0.5 mg/kg i.v.) was “not statistically significant” and the “left atrial pressure, decrease (in words)” value ([1]; 0.5 mg/kg i.v.) was “not statistically significant”. The “cardiac index, increase” value [1, 2] was 17±4%, the “mean arterial pressure, decrease” value [1, 2] was 10±2% and the “total peripheral resistance, decrease” value [1, 2] was 22±3%. The “reduction in total peripheral resistance compared with Compound 2 (1 mg/kg or 4 mg/kg i.v.)” value ([1]; Compound 1 0.5 mg/kg i.v.) was “greater than that induced by either dose of Compound 2”, the “LV End-Diastolic Diameter, change from baseline” value [1, 3] was “+0.1 ± 0.2 mm” and the “LV End-Systolic Diameter, change from baseline” value [1, 3] was −0.3 ± 0.3 mm. For the same compound, the “LV Fractional Shortening, change from baseline” value [1, 3] was “+0.6 ± 0.2%”, the “Vcf, change from baseline” value [1, 3] was 0.05 ± 0.01* sec^−1 and the “Cardiac Index, change from baseline” value [1, 3] was “+14 ± 2 ml/min/kg”. The “Heart Rate, change from baseline” value [1, 3] was “+5 ± 5 beat/min”, the “LV dP/dt, change from baseline” value [1, 3] was “+25 ± 40 mmHg/sec” and the “Left Atrial Pressure, change from baseline” value [1, 3] was −4 ± 2 mmHg. The “Mean Arterial Pressure, change from baseline” value [1, 3] was −10 ± 1 mmHg, the “Total Peripheral Resistance, change from baseline” value [1, 3] was −0.25 ± 0.03 mmHg/ml/min/kg and the “LV End-Diastolic Diameter, change from baseline” value [1, 4] was “+0.2 ± 0.3 mm”. For the same compound, the “LV End-Systolic Diameter, change from baseline” value [1, 4] was −0.2 ± 0.3 mm, the “LV Fractional Shortening, change from baseline” value [1, 4] was “+0.7 ± 0.2%” and the “Vcf, change from baseline” value [1, 4] was “+0.07 ± 0.02* sec^−1”. For the same compound, the “Cardiac Index, change from baseline” value [1, 4] was “+13 ± 2 ml/min/kg”, the “Heart Rate, change from baseline” value [1, 4] was “+7 ± 5 beat/min” and the “LV dP/dt, change from baseline” value [1, 4] was 56 ± 65 mmHg/sec. For the same compound, the “Left Atrial Pressure, change from baseline” value [1, 4] was −2 ± 2 mmHg, the “Mean Arterial Pressure, change from baseline” value [1, 4] was −8 ± 1 mmHg and the “Total Peripheral Resistance, change from baseline” value [1, 4] was −0.24 ± 0.05 mmHg/ml/min/kg. The “hemodynamic responses to ET-1 after administration of the antagonist” value (ET receptor; Compound 1 0.5 mg/kg i.v., ET-1 cumulative i.v. bolus, total dose 0.5 μg/kg) was “markedly attenuated”.
With `C[C@H](N[C@@H](CCc1ccccc1)C(=O)O)C(=O)N1CCC[C@H]1C(=O)O` [Compound 2, enalaprilat, reference compound] the “effect on total peripheral resistance (in words)” value ([1]; 1 mg/kg or 4 mg/kg i.v., throughout 90-minute observation period, not dose-dependent) was “significantly reduce the total peripheral resistance”.
For `CC[C@H](C)[C@H](NC(=O)[C@H](CC(=O)O)NC(=O)[C@H](CC(C)C)NC(=O)[C@H](Cc1c[nH]cn1)NC(=O)[C@@H]1CSSC[C@H](N)C(=O)N[C@@H](CO)C(=O)N[C@H]2CSSC[C@H](NC(=O)[C@H](CCC(=O)O)NC(=O)[C@H](CCCCN)NC(=O)[C@H](CC(=O)O)NC(=O)[C@H](CCSC)NC(=O)[C@H](CC(C)C)NC(=O)[C@H](CO)NC(=O)[C@H](CO)NC2=O)C(=O)N[C@@H](C(C)C)C(=O)N[C@@H](Cc2ccc(O)cc2)C(=O)N[C@@H](Cc2ccccc2)C(=O)N1)C(=O)N[C@H](C(=O)N[C@@H](Cc1c[nH]c2ccccc12)C(=O)O)[C@@H](C)CC` [ET-1, endothelin-1], the “effect of ET-1 on heart rate” value (ET receptor; [5]) was “decreased, but not dose-dependently”, the “effect of ET-1 on mean arterial pressure” value (ET receptor; [5]) was “significant dose-dependent increases” and the “effect of ET-1 on mean left atrial pressure” value (ET receptor; [5]) was “significant dose-dependent increases”. The “effect of ET-1 on total peripheral resistance” value (ET receptor; [5]) was “significant dose-dependent increases”.
